In PubChem BioAssay (NCI) one finds TGI data, which are given here for twelve molecules.

Some test systems named below: CCRF-CEM leukemia; TK-10 renal; NCI-H460 lung; COLO 205 colon; HL-60(TB) leukemia; DU-145 prostate; SK-OV-3 ovarian; HCC-2998 colon; HT29 colon; HCT-15 colon; HOP-92 NSCLC; CAKI-1 renal; U251 CNS; OVCAR-5 ovarian; NCI/ADR-RES ovarian; OVCAR-8 ovarian; K-562 leukemia; A498 renal.
What all share (test): NCI tumour cell line growth inhibition, 48 h

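Compound exposure: 48 hours, 5 concentrations, 96-well plates. TGI marks complete inhibition of growth.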 Where a SMILES comes first, the peptide text is derived from it.

On to `CCOC(=O)CCC(C(=O)OCC)n1nnc2ccc(Nc3c(C)[n+]([O-])c4cc(Cl)ccc4[n+]3[O-])cc21` (configuration not stated), for which the TGI in the experiment with CCRF-CEM leukemia was above 100 µM; in the experiment with TK-10 renal it was above 100 µM; in the experiment with NCI-H460 lung it was above 100 µM; in the experiment with COLO 205 colon, 35.7 µM; in the experiment with HL-60(TB) leukemia, 83.5 µM; in the experiment with DU-145 prostate, above 100 µM. For the same molecule, the TGI with SK-OV-3 ovarian is above 100 µM; in the experiment on HCC-2998 colon it was 49.7 µM; in the experiment with HT29 colon, 68.9 µM; in the experiment on HCT-15 colon, 58.2 µM; in the experiment with HOP-92 NSCLC, 38.7 µM; in the experiment with CAKI-1 renal it was above 100 µM. Also, the TGI was above 100 µM with U251 CNS; above 100 µM in the experiment with OVCAR-5 ovarian; above 100 µM in the experiment with NCI/ADR-RES ovarian; 55.5 µM with OVCAR-8 ovarian; 57.7 µM in the experiment with K-562 leukemia.

As for `CC(=O)NC(CS)C(=O)NC(CO)C(=O)NC(CO)C(=O)NC(Cc1c[nH]c2ccccc12)C(=O)N1CCCC1C(=O)NC(CO)C(=O)NC(Cc1c[nH]c2ccccc12)C(=O)NC(Cc1c[nH]cn1)C(=O)NC(CO)C(=O)NC(Cc1c[nH]c2ccccc12)C(=O)NCC(=O)NCC(=O)NC(CC(=O)O)C(=O)NC(CCC(N)=O)C(=O)NC(CCCCN)C(=O)NC(Cc1ccccc1)C(=O)NC(CCCNC(=N)N)C(=O)NC(CCCCN)C(N)=O` (configuration not stated) (Ac-CSSWPSWHSWGGDQKFRK-NH2; configuration not given here), the TGI with CCRF-CEM leukemia, in the experiment on TK-10 renal, in the experiment with NCI-H460 lung, in the experiment with COLO 205 colon, in the experiment on HL-60(TB) leukemia and in the experiment with DU-145 prostate was above 25 µM in each case. For the same molecule, the TGI with SK-OV-3 ovarian, in the experiment on HT29 colon, with HCT-15 colon, in the experiment on HOP-92 NSCLC, in the experiment on CAKI-1 renal and in the experiment on U251 CNS was above 25 µM throughout. The TGI with OVCAR-5 ovarian, with NCI/ADR-RES ovarian, with OVCAR-8 ovarian, in the experiment with K-562 leukemia and in the experiment on A498 renal was above 25 µM each time.

Consider `O=C1Oc2ccccc2C(=O)/C1=C/N1C(=O)N/C(=C\c2cccc(O)c2)C1=O`, for which the TGI with TK-10 renal, in the experiment on NCI-H460 lung, in the experiment on COLO 205 colon, in the experiment with HL-60(TB) leukemia, in the experiment on DU-145 prostate and in the experiment with SK-OV-3 ovarian was above 100 µM in each case. Besides, the TGI in the experiment with HCC-2998 colon, in the experiment on HT29 colon, with HCT-15 colon, in the experiment with HOP-92 NSCLC, in the experiment with CAKI-1 renal and in the experiment on U251 CNS was above 100 µM throughout. Moreover, the TGI with OVCAR-5 ovarian, in the experiment with NCI/ADR-RES ovarian and in the experiment on OVCAR-8 ovarian was above 100 µM each time.

With `Nc1ccc(Nc2c3ccccc3nc3ccccc23)cc1`, the TGI with CCRF-CEM leukemia is 6.19 µM; in the experiment on TK-10 renal, above 10 µM; in the experiment on NCI-H460 lung, 8.07 µM; with COLO 205 colon, above 10 µM; in the experiment with HL-60(TB) leukemia, above 10 µM; in the experiment on DU-145 prostate it was above 10 µM. The TGI with SK-OV-3 ovarian is above 10 µM; in the experiment on HCC-2998 colon, above 10 µM; with HT29 colon, above 10 µM; in the experiment on HCT-15 colon, above 10 µM; with CAKI-1 renal, 6.94 µM; in the experiment with U251 CNS, above 10 µM. Also, the TGI with OVCAR-5 ovarian, in the experiment with NCI/ADR-RES ovarian, in the experiment on OVCAR-8 ovarian and with K-562 leukemia was above 10 µM in each case.

On to `O=C(Cc1ccccc1)NNc1nc(NNC(=O)c2ccncc2)nc(Nc2ccccc2)n1`, for which the TGI in the experiment on CCRF-CEM leukemia, in the experiment with TK-10 renal, with NCI-H460 lung, in the experiment on COLO 205 colon, with HL-60(TB) leukemia and in the experiment with DU-145 prostate was above 10 µM throughout. The TGI in the experiment on SK-OV-3 ovarian, with HCC-2998 colon, in the experiment with HT29 colon, in the experiment on HCT-15 colon, in the experiment on HOP-92 NSCLC and with CAKI-1 renal was above 10 µM in each case. Also, the TGI with U251 CNS, in the experiment with NCI/ADR-RES ovarian, with OVCAR-8 ovarian and with K-562 leukemia was above 10 µM throughout.

As for `C[C@H]1CCCCC[C@@H]2CC(=O)CC2C(=O)CCC(=O)O1` (some centres not stated), the TGI in the experiment with CCRF-CEM leukemia, with TK-10 renal, in the experiment with NCI-H460 lung, in the experiment on COLO 205 colon, in the experiment with HL-60(TB) leukemia and in the experiment with DU-145 prostate was above 100 µM throughout. The TGI in the experiment on HCC-2998 colon, in the experiment on HT29 colon, with HCT-15 colon, with HOP-92 NSCLC, with U251 CNS and in the experiment on OVCAR-5 ovarian was above 100 µM throughout. The TGI in the experiment on NCI/ADR-RES ovarian, with OVCAR-8 ovarian and in the experiment on K-562 leukemia was above 100 µM throughout.

On to `Cc1cc2c(cc1C)C(=O)C1(C2)Cc2c(ccc(C)c2C)C1=O` (configuration not stated), for which the TGI in the experiment on CCRF-CEM leukemia, in the experiment on TK-10 renal, with NCI-H460 lung, in the experiment on COLO 205 colon, in the experiment on HL-60(TB) leukemia and with DU-145 prostate was above 100 µM in each case. Besides, the TGI in the experiment with HCC-2998 colon, with HCT-15 colon, in the experiment on HOP-92 NSCLC, in the experiment on CAKI-1 renal, in the experiment on U251 CNS and with OVCAR-5 ovarian was above 100 µM each time. Also, the TGI in the experiment on NCI/ADR-RES ovarian, in the experiment on OVCAR-8 ovarian and with K-562 leukemia was above 100 µM in each case.

Take `O=C(Nc1nnc(-c2c(Cl)c(Cl)c(Cl)c(Cl)c2-c2nc3cc(C(=O)c4ccccc4)ccc3[nH]2)o1)c1ccccc1`: the TGI in the experiment with CCRF-CEM leukemia was determined as 20.8 µM; in the experiment on TK-10 renal, 50.7 µM; in the experiment on COLO 205 colon, 24.5 µM; in the experiment on HL-60(TB) leukemia it was 65.3 µM; with DU-145 prostate, 47.8 µM; with SK-OV-3 ovarian it was 52.2 µM. Also, the TGI is 63.6 µM in the experiment on HT29 colon; 36.7 µM in the experiment with HCT-15 colon; 44.5 µM in the experiment with HOP-92 NSCLC; above 100 µM in the experiment with CAKI-1 renal; 26.5 µM in the experiment with U251 CNS; 55.7 µM in the experiment with OVCAR-5 ovarian. Further, the TGI was 33.3 µM in the experiment on NCI/ADR-RES ovarian, above 100 µM in the experiment on OVCAR-8 ovarian, above 100 µM in the experiment on K-562 leukemia and 49.6 µM with A498 renal.

Regarding `CSCCCNC(=O)c1csc(-c2csc(CCN)n2)n1`, the TGI with CCRF-CEM leukemia, with TK-10 renal, in the experiment on NCI-H460 lung, in the experiment on COLO 205 colon, in the experiment on HL-60(TB) leukemia and in the experiment with DU-145 prostate was above 100 µM throughout. Further, the TGI with SK-OV-3 ovarian, in the experiment with HCC-2998 colon, in the experiment on HT29 colon, with HCT-15 colon, in the experiment with HOP-92 NSCLC and with CAKI-1 renal was above 100 µM in each case. For the same molecule, the TGI in the experiment on U251 CNS, in the experiment with OVCAR-5 ovarian, in the experiment with NCI/ADR-RES ovarian, with OVCAR-8 ovarian and with K-562 leukemia was above 100 µM in each case.

As to `O=C(O)Cc1cccc2c1OC(c1ccccc1)C(C(=O)c1ccccc1)C2=O` (configuration not stated), the TGI is above 100 µM in the experiment with CCRF-CEM leukemia; 79.9 µM in the experiment on TK-10 renal; above 100 µM in the experiment on NCI-H460 lung; above 100 µM in the experiment with COLO 205 colon; 50.9 µM in the experiment with HL-60(TB) leukemia; above 100 µM in the experiment on DU-145 prostate. Besides, the TGI in the experiment on SK-OV-3 ovarian is above 100 µM; in the experiment on HCC-2998 colon, 59.7 µM; with HCT-15 colon it was above 100 µM; in the experiment with CAKI-1 renal it was above 100 µM; in the experiment on U251 CNS, above 100 µM; in the experiment with OVCAR-5 ovarian, above 100 µM. Also, the TGI in the experiment with NCI/ADR-RES ovarian, in the experiment with OVCAR-8 ovarian and in the experiment on K-562 leukemia was above 100 µM in each case.

`CC1(c2nc3ccccc3[nH]2)CCC(C(N)=O)C(C)(C)O1` (configuration not stated): the TGI in the experiment with CCRF-CEM leukemia, in the experiment on TK-10 renal, in the experiment on COLO 205 colon, with HL-60(TB) leukemia, in the experiment with DU-145 prostate and with SK-OV-3 ovarian was above 100 µM throughout. Also, the TGI in the experiment with HCC-2998 colon, with HT29 colon, with HCT-15 colon, with HOP-92 NSCLC, in the experiment on CAKI-1 renal and with U251 CNS was above 100 µM in each case. For the same molecule, the TGI in the experiment on OVCAR-5 ovarian, with NCI/ADR-RES ovarian, in the experiment on OVCAR-8 ovarian and in the experiment on K-562 leukemia was above 100 µM each time.

Turning to `C[C@]12CC[C@H](O)C=C1CC[C@@H]1[C@@H]2CC[C@]2(C)C(=N/O)/C(=C/c3ccncc3)C[C@@H]12`, the TGI was 32.9 µM in the experiment with CCRF-CEM leukemia; 38.3 µM in the experiment with TK-10 renal; 30.7 µM in the experiment on NCI-H460 lung; 38.8 µM in the experiment with COLO 205 colon; 35.4 µM with HL-60(TB) leukemia; 19.9 µM with DU-145 prostate. For the same molecule, the TGI was 34.9 µM in the experiment on SK-OV-3 ovarian; 12.5 µM in the experiment on HCC-2998 colon; 18.9 µM in the experiment on HT29 colon; above 100 µM in the experiment with HCT-15 colon; 31.6 µM in the experiment on HOP-92 NSCLC; above 100 µM in the experiment with CAKI-1 renal. For the same molecule, the TGI in the experiment on U251 CNS was 19.6 µM; with OVCAR-5 ovarian, 43.8 µM; in the experiment with NCI/ADR-RES ovarian, 96.8 µM; in the experiment on OVCAR-8 ovarian, 76 µM; in the experiment on K-562 leukemia, above 100 µM.
